According to patent EP3338775B1, “USE OF BUTYLIDENEPHTHALIDE” (Everfront Biotech Inc., priority 2015, dated 2017):
“And” between values parts separate entries of the source, which are not always exact repeats. Equal values may be shown once.

Legend:
Type in all cases: cell-based
[1] = tested on: E-cadherin, TGFβ-1 and Slug; experiment: Western blotting of EMT-related proteins in brain CSCs CD133+; conditions: BP 0, 12.5, 25, 50, 62.5 and 75 µg/ml for 24 hours, Figure 12
Procedure: In has been known that at the start of the epithelial-mesenchymal transition (EMT) of cancer stem cells, the expression of E-cadherin would reduce and the aggregation force between cancer stem cells would decrease, so that the cancer stem cells would gain great invasion and migration capacity and depart from the primary tumor, and thus, could metastasize. Brain CSCs ^CD133+ was treated with different concentrations (0, 12.5, 25, 50, 62.5 and 75 µg/ml) of BP for 24 hours, and then, proteins were extracted from the cells to conduct Western blotting to determine the expressions of E-cadherin, TGFβ-1 (with an ability to induce EMT) and Slug (i.e., a member of Snail family transcriptional repressors with a property of promoting the metastasis of cancer cells) proteins in the BP-treated brain CSCs ^CD133+.

[2] = tested on: HNC-TIC-like oral stem cells (ALDH1^+CD44^+-1 cell line or ALDH1^+CD44^+-2 cell line); experiment: Soft agar colony formation assay with HNC-TIC-like oral stem cells; conditions: BP 0, 25 and 50 µg/ml for 24 hours
Procedure: In this research, a soft agar colony formation assay was used to investigate the effect of BP on inhibiting the tumor initiating activity of cancer stem cells. First, HNC-TIC-like oral stem cells (i.e., ALDH1^+CD44^+-1 cell line or ALDH1^+CD44^+-2 cell line) were treated with different concentrations (0, 25 and 50 µg/ml) of BP for 24 hours, and then, the treated cells of each group was separately seeded in the top agar [containing DMEM (Dulbecco's Modified Eagle's Medium medium), 10 % (v/v) Fetal Calf Serum (FCS) and 0.3 % (w/v) agar] (purchased from Sigma-Aldrich) at an initial cell number of 2×10^4. On the other hand, a six-well culture dish was coated with the bottom agar [containing DMEM, 10 % (v/v) FCS and 0.6 % (w/v) agar] (purchased from Sigma-Aldrich), 2 ml for each well. After the bottom agar was solidified, each group of the top agar (containing oral cancer stem cells) was respectively added onto the bottom agar in different wells of the dish, 2 ml for each well. […] Lastly, the bottom agar was stained with 0.005 % crystal violet, the number of colonies (with a diameter ≥100 µm) was counted over five fields per well with the use of a microscope, and those fields were photographed. The relative colony-forming ability of cells of each experimental group was calculated based on the result of the group treated with 0 µg/ml of BP.

ALDH = experiment: ALDEFLUOR flow cytometry analysis of ALDH activity in HNC-TIC-like oral stem cells; conditions: group without DEAB addition; BP 0, 25 and 50 µg/ml for 24 hours; Figure 8
Procedure: ALDH protein is also an important stemness-maintenance marker of cancer stem cells and participates in the regulation of the self-renewal and differentiation of cancer stem cells. HNC-TIC-like oral stem cells (i.e., ALDH1^+CD44^+-1 cell line or ALDH1^+CD44^+-2 cell line) were treated with different concentrations (0, 25 and 50 µg/ml) of BP for 24 hours, and then, 1 ×10^5 cells obtained from each group were separately suspended in 50 µl of a stem cell detection kit (i.e., ALDEFLUOR array kit, purchased from […] Technologies Inc., Vancouver, Canada) buffer and the cell suspension of each group was separately added with ALDEFLUOR to a final concentration of 1 µM. Thereafter, a sample of each group was stained by […] and then analyzed by flow cytometry analysis to determine the ALDH activity of HNC-TIC-like oral stem cells (i.e., ALDH1^+CD44^+-1 cell line and ALDH1^+CD44^+-2 cell line).
The above experimental procedure was repeated, but the cell suspension of each group was further added with N,N-diethylaminobenzaldehyde (DEAB, i.e., an inhibitor of ALDH) to a final concentration of 150 µM of DEAB separately.

brain CSCs ^CD133+ = experiment: MTT cell viability assay on brain CSCs CD133+
Excerpt: Thereafter, a cell viability assay, MTT assay, was utilized to analyze the viabilities of brain CSCs ^CD133+ and malignant glioma DBTRG cells. […]

EZH2 = experiment: Western blotting of EZH2 protein in brain CSCs CD133+; conditions: BP 0, 12.5, 25, 50, 62.5 and 75 µg/ml; Figure 3
Procedure: It has been known that EZH2 (enhancer of zeste homolog 2) gene is a critical growth related factor of cancer stem cells, and it will affect the growth and growth characteristics of cancer stem cells. Brain CSCs ^CD133+ was treated with different concentrations (0, 12.5, 25, 50, 62.5 and 75 µg/ml) of BP, and then, proteins were extracted from the cells to conduct Western blotting to determine the expression of EZH2 protein in the BP-treated brain CSCs ^CD133+.

Sox-2 and Oct4 proteins = experiment: Western blotting of stemness-maintenance markers in HNC-TIC-like oral stem cells; conditions: BP 0, 12.5, 25 and 50 µg/ml for 24 hours; both cell lines; Figure 7

## CCCC=C1OC(=O)c2ccccc21 [BP, butylidenephthalide]
[1]
  expression of E-cadherin protein: significantly increased
  expressions of TGFβ-1 and Slug proteins: significantly decreased
[2]; 4 weeks culture, Figure 15A
  number of colonies in the bottom agar: significantly decreased
[2]; relative to 0 µg/ml group, Figure 15B
  relative colony-forming ability of cancer stem cells: decreased along with the increment in the concentration of BP
ALDH
  number of live cells with ALDH activity: increased along with the increment in the concentration of BP
Brain CSCs ^CD133+; 24-hour group and 48-hour group, BP 0-100 µg/ml, BCNU 0-1000 µM, Figure 1A, 1B
  viability of brain CSCs ^CD133+: significantly decreased
Brain CSCs ^CD133+; 24 h, read-out: IC50 to brain CSCs ^CD133+
  IC50: 406 µM and 76.5 µg/mL
EZH2
  expression of EZH2 protein in brain CSCs ^CD133+: significantly decreased
Sox-2 and Oct4 proteins
  expressions of Sox-2 and Oct4 proteins in the HNC-TIC-like oral stem cells: significantly decreased
